In patent US5578445A, “In vitro method of evaluating the effects of a substance” (priority 1991, dated 1996):

Experiments:
estrogen receptor [1] = biological target: T1, estrogen receptor (Homo sapiens, UniProt P03372); experiment: pS2 secretion, additional set of experiments, ZR 75-1 in 96-well trays, pS2 RIA; settings: for relative amount of pS2 (no hormone added = 1): zr 75-1 cells, 48 h
T1 sequence (P03372 1-595): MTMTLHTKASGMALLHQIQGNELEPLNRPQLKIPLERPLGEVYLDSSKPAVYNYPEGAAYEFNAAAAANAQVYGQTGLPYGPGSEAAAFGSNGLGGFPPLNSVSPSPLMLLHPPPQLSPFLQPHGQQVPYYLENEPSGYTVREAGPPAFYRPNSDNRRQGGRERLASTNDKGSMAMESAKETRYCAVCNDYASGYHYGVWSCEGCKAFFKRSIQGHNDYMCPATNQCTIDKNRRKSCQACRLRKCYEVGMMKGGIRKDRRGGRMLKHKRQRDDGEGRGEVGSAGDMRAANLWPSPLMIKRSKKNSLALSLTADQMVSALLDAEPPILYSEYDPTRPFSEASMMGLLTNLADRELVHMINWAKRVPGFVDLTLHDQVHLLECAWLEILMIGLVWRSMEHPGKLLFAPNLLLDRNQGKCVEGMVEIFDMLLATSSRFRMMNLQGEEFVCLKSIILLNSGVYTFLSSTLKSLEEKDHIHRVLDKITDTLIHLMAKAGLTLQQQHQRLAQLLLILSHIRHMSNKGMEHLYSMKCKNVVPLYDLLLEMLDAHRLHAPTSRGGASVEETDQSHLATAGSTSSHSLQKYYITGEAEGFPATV
Method: (§1) The amount of pS2 secreted into the medium was determined with the aid of a commercial RIA (ELSA pS2 from CIS Bioindustries, Gif-sur-Yvette, France).
(§2) Samples of the cells ZR 75-1 and MCF7, respectively, were distributed into plastic petridishes (suitable for the culturing of mammalian cells).
(§3) Samples of the cells ZR 75-1 ([…]) and MCF7 (2.5×10^4 cells/well), respectively, were distributed in 96-well trays. The cells were distributed in the same medium as used on day 1.
(§4) The wells were washed with 100 μl Coon's medium/well. The first medium was replaced by the second medium (B) without 1% FCS. The following hormone additions were made:
(§5) 48 hours after the hormone addition the number of cells and their morphology were investigated. Medium from each well was transferred to Eppendorf tubes. The possible amount of pS2 in the medium samples was analyzed with the aid of a commercial pS2 RIA (ELSA pS2 ).

estrogen receptor [2] = biological target: T1, estrogen receptor; experiment: pS2 secretion, additional set of experiments, MCF7 in 96-well trays, pS2 RIA; settings: for relative amount of pS2 (no hormone added = 1): mcf7 cells, 48 h
Method: as §1, §2, §3, §4, §5

estrogen receptor [3] = biological target: T1, estrogen receptor; experiment: Cathepsin D secretion into medium, MCF7 in petridishes, Cath D RIA
Method: The experiment was conducted using the human breast cancer cell line MCF7 (ATCC HTB 22). The selected cellular response to be analyzed was the amount of expressed cathepsin D (Cath D), the expression of which is regulated by the estrogen receptor. […] The amount of Cath D secreted into the medium was determined with the aid of a commercial RIA (ELSA-CATH-D from CIS Bioindustries, Gif-sur-Yvette, France). The performance of the method is as follows:
A sample of the cell line MCF7 (4×10^5 cells) was distributed into plastic petridishes (suitable for the culturing of mammalian cells). The cells were suspended in the first medium (C).
The petridishes were incubated at 37° C. and 5% CO2 in a temperature and humidity controlled chamber.
The first medium (C) was replaced by the second medium, which consisted of fresh first medium (C). The following hormone additions were made:
The petridishes were incubated in the temperature and humidity controlled chamber under the same conditions as above.
72 hours after the hormone addition visual inspection of the number of cells and their morphology was performed. Medium from each petridish was transferred to Eppendorf tubes and centrifuged 7 minutes at 1000rpm (Eppendorf centrifuge). The amount of Cath D in the medium samples was analyzed with the aid of the commercial Cath D RIA (ELSA-CATH D)

estrogen receptor [4] = biological target: T1, estrogen receptor; experiment: Cathepsin D secretion, additional set of experiments, ZR 75-1 in 96-well trays, Cath D RIA
Method: (§6) The amount of Cath D secreted into the medium was determined with the aid of a commercial RIA (ELSA-CATD-D from CIS Bio-industries, Gif-sur-Yvette, France).
as §2
(§7) Samples of the cells ZR 75-1 (4×10^4 cells/well) and MCF7 (2.5×10^4 cells/well), respectively, were distributed in 96-well trays. The cells were distributed in the same medium as used on day 1.
as §4
(§8) 48 hours after the hormone addition the number of cells and their morphology were investigated. Medium from each well was transferred to Eppendorf tubes. The possible amount of Cath D in the medium samples was analyzed with the aid of a commercial Cath D RIA (ELSA-CATH-D).

estrogen receptor [5] = biological target: T1, estrogen receptor; experiment: Cathepsin D secretion, additional set of experiments, MCF7 in 96-well trays, Cath D RIA
Method: as §6, §2, §7, §4, §8

ZR 75-1 = experiment: Proliferation, amount of ATP after 6 days, ZR 75-1; format: cell-based, human
Method: The growth is determined by measuring the amount of ATP in the cells after incubation with ligands for 6 days. […]
Samples of the cells ZR 75-1 (8000 cells/well) and MCF7 (4000 cells/well), respectively, were distributed into microtiter plates having 96 wells.
The following hormone additions were made:
The medium was replaced by fresh medium of the same composition as on day 6, and hormone additions as on day 6.
6 days after hormone addition the number of cells and their morphology were investigated. Medium from each well was poured off. To each well was added 100 μl 1% TCA (trichloro acetic acid).

[6] = ZR-75-1, 48 h, read-out: relative amount of pS2 (no hormone added = 1)
[7] = MCF7, 48 h, read-out: relative amount of pS2 (no hormone added = 1)
[8] = 10^-8 M LY 117018, presence of 10^-10 M E2

- function on pS2 expression (estrogen receptor [1]; ZR 75-1, 10^-8 M LY 117018, presence of 10^-10 M E2): functions as an antagonist
- antagonist strength compared with Tamoxifen, pS2 (estrogen receptor [1]; ZR 75-1, presence of 0.1 nM E2): stronger antagonist than Tamoxifen
- influence on the pS2 secretion (estrogen receptor [1]; ZR 75-1, substance alone, without E2): do not have an influence
- fold induction at 0.001 µM (estrogen receptor [1]; [6]): 0.9
- fold induction at 0.01 µM (estrogen receptor [1]; [6]): 0.86
- fold induction at 0.1 µM (estrogen receptor [1]; [6]): 0.78
- fold induction at 1 µM (estrogen receptor [1]; [6]): 0.75
- relative amount of pS2 (no hormone added = 1) (estrogen receptor [1]; 0.001 µM): 1.96
- relative amount of pS2 (no hormone added = 1) (estrogen receptor [1]; 0.01 µM): 0.84
- relative amount of pS2 (no hormone added = 1) (estrogen receptor [1]; 0.1 µM): 0.91
- relative amount of pS2 (no hormone added = 1) (estrogen receptor [1]; 1 µM): 0.83
- fold induction at 0.001 µM (estrogen receptor [2]; [7]): 0.89
- fold induction at 0.01 µM (estrogen receptor [2]; [7]): 1
- fold induction at 0.1 µM (estrogen receptor [2]; [7]): 0.93
- fold induction at 1 µM (estrogen receptor [2]; [7]): 1
- function on pS2 expression (estrogen receptor [2]; MCF7, 10^-8 M LY 117018, presence of 10^-10 M E2): functions as an antagonist
- antagonist strength compared with Tamoxifen, pS2 (estrogen receptor [2]; MCF7, presence of 0.1 nM E2): stronger antagonist than Tamoxifen
- influence on the pS2 secretion (estrogen receptor [2]; MCF7, substance alone, without E2): do not have an influence
- relative amount of pS2 (no hormone added = 1) (estrogen receptor [2]; 0.001 µM): 2.01
- relative amount of pS2 (no hormone added = 1) (estrogen receptor [2]; 0.01 µM): 1.11
- relative amount of pS2 (no hormone added = 1) (estrogen receptor [2]; 0.1 µM): 1.19
- relative amount of pS2 (no hormone added = 1) (estrogen receptor [2]; 1 µM): 1.18
- fold induction at 0.1 µM (estrogen receptor [3]; MCF7, 72 h, read-out: relative amount of Cath D (no hormone added = 1)): 0.88
- function on Cath D expression (estrogen receptor [3]; MCF7, 10^-7 M LY 117018, both in the absence and in the presence of 10^-8 M E2): acts as an estrogen antagonist
- function on Cath D expression (estrogen receptor [4]; [8]): functions as an antagonist
- antagonist strength compared with Tamoxifen, Cath D (estrogen receptor [4]; presence of 0.1 nM E2): stronger antagonist than Tamoxifen
- influence on the Cath D secretion (estrogen receptor [4]; substance alone, without E2): do not have an influence
- function on Cath D expression (estrogen receptor [5]; [8]): functions as an antagonist
- antagonist strength compared with Tamoxifen, Cath D (estrogen receptor [5]; presence of 0.1 nM E2): stronger antagonist than Tamoxifen
- influence on the Cath D secretion (estrogen receptor [5]; substance alone, without E2): do not have an influence
SMILES: O=C(c1ccc(OCCN2CCCC2)cc1)c1c(-c2ccc(O)cc2)sc2cc(O)ccc12 [LY 117018]
- inhibition of the expression of pS2 (estrogen receptor [1]; ZR 75-1, 10 nM LY 117018 and 0.1 nM E2): inhibited down to the same level as in the absence of added hormone
- inhibition of the expression of pS2 (estrogen receptor [2]; MCF7, 10 nM LY 117018 and 0.1 nM E2): inhibited down to the same level as in the absence of added hormone
- inhibition of the expression of Cath D (estrogen receptor [4]; 10 nM LY 117018 and 0.1 nM E2): inhibited down to same level as in the absence of added hormone
- inhibition of the expression of Cath D (estrogen receptor [5]; 10 nM LY 117018 and 0.1 nM E2): inhibited down to same level as in the absence of added hormone
- inhibition of growth (ZR 75-1; 0.1 nM E2 and 10 nM LY 117018): inhibited down to the same level as in the absence of added hormone
- function on growth (ZR 75-1; 10^-7 M LY 117018, presence of 10^-10 M E2): functions as an antagonist
- activity at 1 µM (ZR 75-1; Homo sapiens, ZR-75-1, 144 h, + 10^-6 M LY 117018, -E2, 6 days, read-out: relative amount of ATP (no hormone added = 1)): 69%
- activity at 0.1 µM (ZR 75-1; Homo sapiens, ZR-75-1, 144 h, + 10^-7 M LY 117018, -E2, 6 days, read-out: relative amount of ATP (no hormone added = 1)): 99%
- activity at 0.01 µM (ZR 75-1; Homo sapiens, ZR-75-1, 144 h, + 10^-8 M LY 117018, -E2, 6 days, read-out: relative amount of ATP (no hormone added = 1)): 89%
- activity at 0.001 µM (ZR 75-1; Homo sapiens, ZR-75-1, 144 h, + 10^-9 M LY 117018, -E2, 6 days, read-out: relative amount of ATP (no hormone added = 1)): 103%
- antagonist strength compared with Tamoxifen, growth (ZR 75-1; presence of 0.1 nM E2): stronger antagonist than Tamoxifen
